Patent US20160009693A1, “HERBICIDAL COMPOUNDS” (SYNGENTA LIMITED, priority 2013, published 2016)

How the values were obtained:
Format in all cases: in vivo
Details in all cases: evaluated after 13 days
[1] = tested on: Amaranthus retoflexus (AMARE); test: Herbicidal glasshouse test, post-emergence, AMARE
Outline: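 Amaranthus retoflexus (AMARE) seeds were sown in pots of standard soil and grown in a glasshouse at 24/16° C. day/night, 14 hours light and 65% humidity for 8 days. The plants were then sprayed post-emergence with an aqueous solution of the active ingredient in acetone/water (50:50) with 0.5% Tween 20. Damage was scored after 13 days.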

Setaria faberi (SETFA) [2] = test: Herbicidal glasshouse test, post-emergence, SETFA
Outline: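 Setaria faberi seeds were sown in standard soil in pots and grown for 8 days in a glasshouse at 24/16° C. day/night, 14 hours light and 65% humidity. The seedlings were then sprayed post-emergence with the active ingredient in acetone/water (50:50) containing 0.5% Tween 20. Afterwards they were kept under the same conditions, watered twice daily, and scored for percentage damage on a five point scale.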

[3] = tested on: Alopecurus myosuroides (ALOMY); test: Herbicidal glasshouse test, post-emergence, ALOMY
[4] = tested on: Ipomoea hederacea (IPOHE); test: Herbicidal glasshouse test, pre-emergence, IPOHE
[5] = tested on: Amaranthus retoflexus (AMARE); test: Herbicidal glasshouse test, pre-emergence, AMARE
Outline: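 Amaranthus retoflexus seeds were sown in pots of standard soil and kept one day in a glasshouse at 24/16° C. (day/night), 14 hours light and 65% humidity. They were then sprayed pre-emergence with the active ingredient in acetone/water (50:50) containing 0.5% Tween 20. Plants grew under the same conditions, watered twice daily, and percentage damage was scored after 13 days.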

Solanum nigrum (SOLNI) [6] = test: Herbicidal glasshouse test, pre-emergence, SOLNI
Outline: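 Seeds of Solanum nigrum were sown in pots of standard soil and kept one day in a glasshouse at 24/16° C. day/night, 14 hours light and 65% humidity. For the pre-emergence treatment they were then sprayed with an aqueous solution of the active ingredient formulated in acetone/water (50:50) containing 0.5% Tween 20. Plant damage was rated after 13 days.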

Solanum nigrum (SOLNI) [7] = test: Herbicidal glasshouse test, post-emergence, SOLNI
[8] = tested on: Alopecurus myosuroides (ALOMY); test: Herbicidal glasshouse test, pre-emergence, ALOMY
[9] = tested on: Ipomoea hederacea (IPOHE); test: Herbicidal glasshouse test, post-emergence, IPOHE
[10] = tested on: Echinochloa crus-galli (ECHCG); test: Herbicidal glasshouse test, pre-emergence, ECHCG
Outline: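 Echinochloa crus-galli seeds were sown in standard soil in pots and grown for one day in a glasshouse at 24/16° C. day/night, 14 hours light and 65% humidity. Pre-emergence spraying used an aqueous solution of the active ingredient in acetone/water (50:50) with 0.5% Tween 20. Damage was scored after 13 days on a five point scale.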

Setaria faberi (SETFA) [11] = test: Herbicidal glasshouse test, pre-emergence, SETFA
[12] = tested on: Echinochloa crus-galli (ECHCG); test: Herbicidal glasshouse test, post-emergence, ECHCG
Outline: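 Echinochloa crus-galli (ECHCG) seeds were sown in standard soil in pots and grown for 8 days in a glasshouse at 24/16° C. day/night, 14 hours light and 65% humidity. The young plants were then sprayed post-emergence with the active ingredient in acetone / water (50:50) containing 0.5% Tween 20. Damage was scored after 13 days.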

Structure (SMILES) | POST Application AMARE, percentage damage (five point scale) ([1]; applied at 1000 g/h) | POST Application SETFA, percentage damage (five point scale) (Setaria faberi (SETFA) [2]; applied at 1000 g/h) | POST Application ALOMY, percentage damage (five point scale) ([3]; applied at 1000 g/h) | PRE Application IPOHE, percentage damage (five point scale) ([4]; applied at 1000 g/h) | PRE Application AMARE, percentage damage (five point scale) ([5]; applied at 1000 g/h) | PRE Application SOLNI, percentage damage (five point scale) (Solanum nigrum (SOLNI) [6]; applied at 1000 g/h) | POST Application SOLNI, percentage damage (five point scale) (Solanum nigrum (SOLNI) [7]; applied at 1000 g/h) | PRE Application ALOMY, percentage damage (five point scale) ([8]; applied at 1000 g/h) | POST Application IPOHE, percentage damage (five point scale) ([9]; applied at 1000 g/h) | PRE Application ECHCG, percentage damage (five point scale) ([10]; applied at 1000 g/h) | PRE Application SETFA, percentage damage (five point scale) (Setaria faberi (SETFA) [11]; applied at 1000 g/h) | POST Application ECHCG, percentage damage (five point scale) ([12]; applied at 1000 g/h) | other results
Cn1nnnc1NC(=O)c1nn(C)c(=O)n(-c2ccc(Cl)c(Cl)c2)c1=O [Compound 1.041] | 5 (5=80-100%) | 5 (5=80-100%) | 5 (5=80-100%) | 5 (5=80-100%) | 5 (5=80-100%) | 5 (5=80-100%) | 5 (5=80-100%) | 5 (5=80-100%) | 5 (5=80-100%) | 5 (5=80-100%) | 4 (4=60-79%) | 5 (5=80-100%) | –
Cn1nnnc1NC(=O)c1nn(C)c(=O)n(-c2cc(F)cc(F)c2)c1=O [Compound 1.042] | 5 (5=80-100%) | 5 (5=80-100%) | 5 (5=80-100%) | 5 (5=80-100%) | 5 (5=80-100%) | 5 (5=80-100%) | 5 (5=80-100%) | 5 (5=80-100%) | 5 (5=80-100%) | 5 (5=80-100%) | 5 (5=80-100%) | 5 (5=80-100%) | –
CSc1cccc(-n2c(=O)c(C(=O)Nc3nnnn3C)nn(C)c2=O)c1 [Compound 1.043] | 5 (5=80-100%) | 4 (4=60-79%) | 5 (5=80-100%) | 5 (5=80-100%) | 5 (5=80-100%) | 5 (5=80-100%) | 5 (5=80-100%) | 4 (4=60-79%) | 5 (5=80-100%) | 5 (5=80-100%) | 2 (2=20-39%) | 5 (5=80-100%) | –
Cn1nnnc1NC(=O)c1nn(C)c(=O)n(-c2cc(F)c(F)c(F)c2)c1=O [Compound 1.044] | 5 (5=80-100%) | 5 (5=80-100%) | 5 (5=80-100%) | 5 (5=80-100%) | 5 (5=80-100%) | 5 (5=80-100%) | 5 (5=80-100%) | 5 (5=80-100%) | 5 (5=80-100%) | 5 (5=80-100%) | 5 (5=80-100%) | 5 (5=80-100%) | –
COc1ccc(-n2c(=O)c(C(=O)Nc3nnnn3C)nn(C)c2=O)cc1Cl [Compound 1.045] | 5 (5=80-100%) | 5 (5=80-100%) | 5 (5=80-100%) | 5 (5=80-100%) | 5 (5=80-100%) | 5 (5=80-100%) | 5 (5=80-100%) | 5 (5=80-100%) | 5 (5=80-100%) | 5 (5=80-100%) | 5 (5=80-100%) | 5 (5=80-100%) | –
CC(C)c1ccc(-n2c(=O)c(C(=O)Nc3nnnn3C)nn(C)c2=O)cc1 [Compound 1.046] | 5 (5=80-100%) | 5 (5=80-100%) | 5 (5=80-100%) | 5 (5=80-100%) | 5 (5=80-100%) | 5 (5=80-100%) | 5 (5=80-100%) | 5 (5=80-100%) | 5 (5=80-100%) | 5 (5=80-100%) | 5 (5=80-100%) | 5 (5=80-100%) | –
Cn1nnnc1NC(=O)c1nn(C)c(=O)n(-c2ccc(Cl)c(C#N)c2)c1=O [Compound 1.047] | – | – | – | – | – | – | – | – | – | – | – | – | POST Application AMARE, percentage damage (five point scale) ([1]; applied at 250 g/ha): 5 (5=80-100%); POST Application SETFA, percentage damage (five point scale) (Setaria faberi (SETFA) [2]; applied at 250 g/ha): 1 (1=0-19%); POST Application ALOMY, percentage damage (five point scale) ([3]; applied at 250 g/ha): 3 (3=40-59%); PRE Application IPOHE, percentage damage (five point scale) ([4]; applied at 250 g/ha): 5 (5=80-100%); PRE Application AMARE, percentage damage (five point scale) ([5]; applied at 250 g/ha): 5 (5=80-100%); PRE Application SOLNI, percentage damage (five point scale) (Solanum nigrum (SOLNI) [6]; applied at 250 g/ha): 5 (5=80-100%); POST Application SOLNI, percentage damage (five point scale) (Solanum nigrum (SOLNI) [7]; applied at 250 g/ha): 5 (5=80-100%); PRE Application ALOMY, percentage damage (five point scale) ([8]; applied at 250 g/ha): 1 (1=0-19%); POST Application IPOHE, percentage damage (five point scale) ([9]; applied at 250 g/ha): 4 (4=60-79%); PRE Application ECHCG, percentage damage (five point scale) ([10]; applied at 250 g/ha): 3 (3=40-59%); PRE Application SETFA, percentage damage (five point scale) (Setaria faberi (SETFA) [11]; applied at 250 g/ha): 1 (1=0-19%); POST Application ECHCG, percentage damage (five point scale) ([12]; applied at 250 g/ha): 3 (3=40-59%)
COc1cc(-n2c(=O)c(C(=O)Nc3nnnn3C)nn(C)c2=O)ccc1F [Compound 1.048] | 5 (5=80-100%) | 5 (5=80-100%) | 5 (5=80-100%) | 5 (5=80-100%) | 5 (5=80-100%) | 5 (5=80-100%) | 5 (5=80-100%) | 5 (5=80-100%) | 5 (5=80-100%) | 5 (5=80-100%) | 5 (5=80-100%) | 5 (5=80-100%) | –
CCCn1nnnc1NC(=O)c1nn(C)c(=O)n(-c2ccc(F)cc2)c1=O [Compound 1.049] | 5 (5=80-100%) | 5 (5=80-100%) | 5 (5=80-100%) | 5 (5=80-100%) | 5 (5=80-100%) | 5 (5=80-100%) | 5 (5=80-100%) | 5 (5=80-100%) | 5 (5=80-100%) | 5 (5=80-100%) | 5 (5=80-100%) | 5 (5=80-100%) | –
